Reference: US20230085307A1, “PYRIDAZINONE COMPOUND AND HERBICIDE” (NISSAN CHEMICAL CORPORATION, priority 2019, published 2023)

Legend:
green foxtail = assay: Test Example 5: herbicidal effect by foliage application, plastic box (Table 20, symbol G); assay type: in vivo, green foxtail (Setaria viridis); settings: foliage application, 320 g/ha, evaluated three weeks after application
Outline: (§1)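 Plants were sown into sterilized diluvial soil under about 1.5 cm cover and kept in a greenhouse at 25° C. to 30° C. Fourteen days on, foliage received an even spray of the diluted emulsion. Herbicidal or crop effect was judged three weeks afterwards.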

Japanese bulrush = assay: Test Example 1: herbicidal activity, application before weed generation under submerged conditions (Table 16, symbol B); assay type: in vivo, Japanese bulrush (Schoenoplectus juncoides); settings: 320 g/ha applied herbicide
Outline: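 Alluvial soil was flooded to 4 cm depth, weed seeds were sown mixed and 2.5-leaf rice seedlings were transplanted. On sowing day, the compound's emulsion, diluted in water to a set dose, was applied to the water surface. Plants grew at 25–30 °C and were scored 0–5 after three weeks.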

velvetleaf = assay: Test Example 5: herbicidal effect by foliage application, plastic box (Table 20, symbol M); assay type: in vivo, velvetleaf (Abutilon theophrasti); settings: foliage application, 320 g/ha, evaluated three weeks after application
Outline: as §1

lambsquarters [1] = assay: Test Example 5: herbicidal effect by foliage application, plastic box (Table 20, symbol O); assay type: in vivo, lambsquarters (Chenopodium album); settings: foliage application, 320 g/ha, evaluated three weeks after application
Outline: as §1

blackgrass = assay: Test Example 4: herbicidal effect by soil treatment (Table 19, symbol J); assay type: in vivo, blackgrass (Alopecurus myosuroides); settings: 320 g/ha
Outline: (§2)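 In this soil treatment, the formulated compound reached the seeds only through the soil: seeds were buried about 1.5 cm deep in sterilized diluvial soil, then the diluted emulsion was sprayed over the surface. After three weeks at 25° C. to 30° C. in a greenhouse, effects were graded on criteria from an earlier test.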

redroot pigweed = assay: Test Example 5: herbicidal effect by foliage application, plastic box (Table 20, symbol N); assay type: in vivo, redroot pigweed (Amaranthus retroflexus); settings: foliage application, 320 g/ha, evaluated three weeks after application
Outline: as §1

late watergrass = assay: Test Example 2: herbicidal activity, application during weed generation under submerged conditions (Table 17, symbol A); assay type: in vivo, late watergrass (Echinochloa oryzicola); settings: AAH 320 g/ha; application during weed generation, submerged conditions
Outline: (§3)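 Alluvial soil in Wagner pots was flooded to 4 cm depth and sown with the three weeds together; pots were kept in a greenhouse at 25° C. to 30° C. At the one to two leaf stage, an emulsion formulation diluted in water to a set rate went onto the water surface; scored three weeks later.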

chickweed = assay: Test Example 5: herbicidal effect by foliage application, plastic box (Table 20, symbol P); assay type: in vivo, common chickweed (Stellaria media); settings: foliage application, 320 g/ha, evaluated three weeks after application
Outline: as §1

lambsquarters [2] = assay: Test Example 4: herbicidal effect by soil treatment (Table 19, symbol O); assay type: in vivo, lambsquarters (Chenopodium album); settings: 320 g/ha
Outline: as §2

windgrass = assay: Test Example 4: herbicidal effect by soil treatment (Table 19, symbol L); assay type: in vivo, windgrass (Apera spica-venti); settings: 320 g/ha
Outline: as §2

wild oat = assay: Test Example 4: herbicidal effect by soil treatment (Table 19, symbol I); assay type: in vivo, wild oat (Avena fatua); settings: 320 g/ha
Outline: as §2

Italian ryegrass [3] = assay: Test Example 5: herbicidal effect by foliage application, plastic box (Table 20, symbol K); assay type: in vivo, Italian ryegrass (Lolium multiflorum); settings: foliage application, 320 g/ha, evaluated three weeks after application
Outline: as §1

Italian ryegrass [4] = assay: Test Example 4: herbicidal effect by soil treatment (Table 19, symbol K); assay type: in vivo, Italian ryegrass (Lolium multiflorum); settings: 320 g/ha
Outline: as §2

oval-leafed pondweed = assay: Test Example 2: herbicidal activity, application during weed generation under submerged conditions (Table 17, symbol C); assay type: in vivo, oval-leafed pondweed (Monochoria vaginalis); settings: AAH 320 g/ha; application during weed generation, submerged conditions
Outline: as §3

southern crabgrass = assay: Test Example 4: herbicidal effect by soil treatment (Table 19, symbol F); assay type: in vivo, southern crabgrass (Digitaria ciliaris); settings: 320 g/ha
Outline: as §2

Chinese sprangletop = assay: Test Example 3: herbicidal effect by foliage application, Wagner pot (Table 18, symbol D); assay type: in vivo, chinese sprangletop (Leptochloa chinensis); settings: 320 g/ha
Outline: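 Plants were sown in alluvial soil held under 0.1–0.5 cm standing water and grown 14 days in a greenhouse at 25–30 °C. An emulsifiable formulation, water-diluted to the set dose, was then sprayed onto the foliage, and effects were scored three weeks later using previously defined criteria.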

SMILES	herbicidal effect on G: green foxtail (green foxtail)	Herbicidal effect on B: Japanese bulrush (grade 0-5) (Japanese bulrush)	herbicidal effect on M: velvetleaf (velvetleaf)	herbicidal effect on O: lambsquarters (lambsquarters [1])	herbicidal effect rating, J: blackgrass (blackgrass)	herbicidal effect on N: redroot pigweed (redroot pigweed)	herbicidal effect rating, A: late watergrass (late watergrass)	herbicidal effect on P: chickweed (chickweed)	herbicidal effect rating, O: lambsquarters (lambsquarters [2])	herbicidal effect rating, L: windgrass (windgrass)	herbicidal effect rating, I: wild oat (wild oat)	herbicidal effect on K: Italian ryegrass (Italian ryegrass [3])	herbicidal effect rating, K: Italian ryegrass (Italian ryegrass [4])	herbicidal effect rating, C: oval-leafed pondweed (oval-leafed pondweed)	herbicidal effect rating, F: southern crabgrass (southern crabgrass)	herbicidal effect on D (Chinese sprangletop), rating 0-5 (Chinese sprangletop)
Cc1nn(C)c(=O)c(-c2c(-c3ccc(OCC(F)(F)F)cc3)sc3ccc(F)cc23)c1O [2-049]	5 (Herbicidal rate of 90% or more (almost completely withered))	3 (Herbicidal rate of 40% or more and less than 70%)	5 (Herbicidal rate of 90% or more (almost completely withered))	5 (Herbicidal rate of 90% or more (almost completely withered))	4 (Herbicidal rate of 70% or more and less than 90%)	5 (Herbicidal rate of 90% or more (almost completely withered))	0 (Herbicidal rate of 5% or less (almost no effect))	5 (Herbicidal rate of 90% or more (almost completely withered))	5 (Herbicidal rate of 90% or more (almost completely withered))	5 (Herbicidal rate of 90% or more (almost completely withered))	0 (Herbicidal rate of 5% or less (almost no effect))	5 (Herbicidal rate of 90% or more (almost completely withered))	4 (Herbicidal rate of 70% or more and less than 90%)	2 (Herbicidal rate of 20% or more and less than 40%)	4 (Herbicidal rate of 70% or more and less than 90%)	5 (Herbicidal rate of 90% or more (almost completely withered))
C=CCOc1ccc(-c2sc3ccc(F)cc3c2-c2c(O)c(C)nn(C)c2=O)cc1 [2-051]	5 (Herbicidal rate of 90% or more (almost completely withered))	4 (Herbicidal rate of 70% or more and less than 90%)	4 (Herbicidal rate of 70% or more and less than 90%)	5 (Herbicidal rate of 90% or more (almost completely withered))	0 (Herbicidal rate of 5% or less (almost no effect))	5 (Herbicidal rate of 90% or more (almost completely withered))	0 (Herbicidal rate of 5% or less (almost no effect))	5 (Herbicidal rate of 90% or more (almost completely withered))	5 (Herbicidal rate of 90% or more (almost completely withered))	3 (Herbicidal rate of 40% or more and less than 70%)	0 (Herbicidal rate of 5% or less (almost no effect))	4 (Herbicidal rate of 70% or more and less than 90%)	0 (Herbicidal rate of 5% or less (almost no effect))	1 (Herbicidal rate of 5% or more and less than 20%)	5 (Herbicidal rate of 90% or more (almost completely withered))	5 (Herbicidal rate of 90% or more (almost completely withered))
C#CCOc1ccc(-c2sc3ccc(F)cc3c2-c2c(O)c(C)nn(C)c2=O)cc1 [2-053]	5 (Herbicidal rate of 90% or more (almost completely withered))	3 (Herbicidal rate of 40% or more and less than 70%)	5 (Herbicidal rate of 90% or more (almost completely withered))	5 (Herbicidal rate of 90% or more (almost completely withered))	0 (Herbicidal rate of 5% or less (almost no effect))	5 (Herbicidal rate of 90% or more (almost completely withered))	0 (Herbicidal rate of 5% or less (almost no effect))	5 (Herbicidal rate of 90% or more (almost completely withered))	3 (Herbicidal rate of 40% or more and less than 70%)	0 (Herbicidal rate of 5% or less (almost no effect))	0 (Herbicidal rate of 5% or less (almost no effect))	5 (Herbicidal rate of 90% or more (almost completely withered))	0 (Herbicidal rate of 5% or less (almost no effect))	3 (Herbicidal rate of 40% or more and less than 70%)	0 (Herbicidal rate of 5% or less (almost no effect))	5 (Herbicidal rate of 90% or more (almost completely withered))
CSc1ccc(-c2sc3ccc(F)cc3c2-c2c(O)c(C)nn(C)c2=O)cc1 [2-076]	5 (Herbicidal rate of 90% or more (almost completely withered))	0 (Herbicidal rate of 5% or less (almost no effect))	5 (Herbicidal rate of 90% or more (almost completely withered))	5 (Herbicidal rate of 90% or more (almost completely withered))	0 (Herbicidal rate of 5% or less (almost no effect))	5 (Herbicidal rate of 90% or more (almost completely withered))	2 (Herbicidal rate of 20% or more and less than 40%)	5 (Herbicidal rate of 90% or more (almost completely withered))	3 (Herbicidal rate of 40% or more and less than 70%)	4 (Herbicidal rate of 70% or more and less than 90%)	0 (Herbicidal rate of 5% or less (almost no effect))	4 (Herbicidal rate of 70% or more and less than 90%)	4 (Herbicidal rate of 70% or more and less than 90%)	0 (Herbicidal rate of 5% or less (almost no effect))	3 (Herbicidal rate of 40% or more and less than 70%)	5 (Herbicidal rate of 90% or more (almost completely withered))
CCCC(=O)Oc1c(C)nn(C)c(=O)c1-c1c(-c2ccc(SC)cc2)sc2ccc(F)cc12 [2-077]	5 (Herbicidal rate of 90% or more (almost completely withered))	4 (Herbicidal rate of 70% or more and less than 90%)	5 (Herbicidal rate of 90% or more (almost completely withered))	5 (Herbicidal rate of 90% or more (almost completely withered))	2 (Herbicidal rate of 20% or more and less than 40%)	5 (Herbicidal rate of 90% or more (almost completely withered))	4 (Herbicidal rate of 70% or more and less than 90%)	5 (Herbicidal rate of 90% or more (almost completely withered))	5 (Herbicidal rate of 90% or more (almost completely withered))	3 (Herbicidal rate of 40% or more and less than 70%)	2 (Herbicidal rate of 20% or more and less than 40%)	5 (Herbicidal rate of 90% or more (almost completely withered))	3 (Herbicidal rate of 40% or more and less than 70%)	3 (Herbicidal rate of 40% or more and less than 70%)	2 (Herbicidal rate of 20% or more and less than 40%)	5 (Herbicidal rate of 90% or more (almost completely withered))
